From patent publication US8802597B2, “Herbicidal pyrimidines” (E I du Pont de Nemours and Company, priority 2003, dated 2014)

What was measured:
Format in all cases: in vivo
[1] = system: Russian thistle (Salsola kali); assay: Test G pre/postemergence
Procedure, shortened: (§1)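 Greenhouse pre/postemergence screen with surfactant-containing solvent formulation; postemergence plants were 1- to 4-leaf stage. Percent control (0–100) was judged by eye against controls after 12–21 days.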

[2] = system: purple nutsedge (Cyperus rotundus); assay: Test G pre/postemergence
Procedure, shortened: as §1

[3] = system: winter barley (Hordeum vulgare); assay: Test D pre/postemergence; settings: scale 0 to 100 (100 = complete control)
Procedure, shortened: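 Formulation: non-phytotoxic solvent mix + surfactant; applied pre-emergence to seeds and post-emergence to 1–4 leaf plants (2–18 cm). Growth chamber 15–25 d; visual comparison with controls, 0 = no effect to 100 = complete control.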

[4] = system: Canada horseweed (Conyza canadensis); assay: Test G pre/postemergence
Procedure, shortened: as §1

[5] = Postemergence, 250 g ai/ha, scale 0 to 100
[6] = Postemergence, 16 g ai/ha, scale 0 to 100
[7] = Postemergence, 31 g ai/ha, scale 0 to 100
[8] = Postemergence, 62 g ai/ha, scale 0 to 100
[9] = Postemergence, 125 g ai/ha, scale 0 to 100
[10] = Preemergence, 16 g ai/ha, scale 0-100
[11] = Preemergence, 31 g ai/ha, scale 0-100
[12] = Preemergence, 62 g ai/ha, scale 0-100
[13] = Preemergence, 125 g ai/ha, scale 0-100
[14] = Preemergence, 250 g ai/ha, scale 0-100
[15] = Postemergence, 8 g ai/ha, scale 0 to 100
[16] = Preemergence, 8 g ai/ha, scale 0-100

SMILES	Plant response rating, Russian Thistle [1, 12]	Plant response rating, Nutsedge, Purple [2, 6]	Plant response rating, Nutsedge, Purple [2, 7]	Plant response rating, Nutsedge, Purple [2, 8]	Plant response rating, Nutsedge, Purple [2, 10]	Plant response rating, Nutsedge, Purple [2, 11]	Plant response rating, Nutsedge, Purple [2, 12]	Plant response rating, Barley ([3]; Postemergence, 125 g ai/ha)	Plant response rating, Barley ([3]; Postemergence, 250 g ai/ha)	Plant response rating, Barley ([3]; Preemergence, 125 g ai/ha)	Plant response rating, Barley ([3]; Preemergence, 250 g ai/ha)	Plant response rating, Barley ([3]; Postemergence, 62 g ai/ha)	Plant response rating, Barley ([3]; Preemergence, 62 g ai/ha)	also measured
Nc1nc(C2CC2)nc(C(=O)OCc2ccccc2)c1Br [Compound 22, phenylmethyl 6-amino-5-bromo-2-cyclopropyl-4-pyrimidinecarboxylate]	95	0	0	0	0	0	30							Plant response rating, Russian Thistle [1, 5]: 100; Plant response rating, Russian Thistle [1, 6]: 95; Plant response rating, Russian Thistle [1, 7]: 100; Plant response rating, Russian Thistle [1, 8]: 100; Plant response rating, Russian Thistle [1, 9]: 100; Plant response rating, Russian Thistle [1, 10]: 65; Plant response rating, Russian Thistle [1, 11]: 75; Plant response rating, Russian Thistle [1, 13]: 100; Plant response rating, Russian Thistle [1, 14]: 100; Plant response rating, Nutsedge, Purple [2, 5]: 15; Plant response rating, Nutsedge, Purple [2, 9]: 0; Plant response rating, Nutsedge, Purple [2, 13]: 40; Plant response rating, Nutsedge, Purple [2, 14]: 50
Nc1nc(C2CC2)nc(C=O)c1Br [Compound 26]								45	50	25	35			
COC(=O)c1nc(C2CC2C)nc(N)c1Br (stereo not drawn) [Compound 28]								40	40	25	45	20	10	
CCOC(=O)Cc1nc(C2CC2)nc(N=CN(C)C)c1Br [Compound 33]								45	45	35	45	45	10	
COC(=O)c1nc(C2CC2)nc(NO)c1Br [Compound 35]								65	70	45	45	65	40	
CCOC(=O)c1nc(-c2ccc(Cl)cc2)nc(N)c1Cl [Compound 64, ethyl 6-amino-5-chloro-2-(4-chlorophenyl)-4-pyrimidinecarboxylate]	0	35	35	35	0	0	0							Plant response rating, Horseweed [4, 15]: 60; Plant response rating, Horseweed [4, 6]: 60; Plant response rating, Horseweed [4, 7]: 60; Plant response rating, Horseweed [4, 8]: 60; Plant response rating, Horseweed [4, 16]: 0; Plant response rating, Horseweed [4, 10]: 75; Plant response rating, Horseweed [4, 11]: 95; Plant response rating, Horseweed [4, 12]: 95; Plant response rating, Russian Thistle [1, 16]: 0; Plant response rating, Russian Thistle [1, 11]: 0; Plant response rating, Nutsedge, Purple [2, 15]: 0; Plant response rating, Nutsedge, Purple [2, 16]: 0
Nc1nc(C2CC2)nc(C(=O)[O-])c1Cl.[Na+] [Compound 77, 6-amino-5-chloro-2-cyclopropyl-4-pyrimidinecarboxylic acid monosodium salt]	100	0	0	0	100	100	100							Plant response rating, Horseweed [4, 5]: 80; Plant response rating, Horseweed [4, 6]: 40; Plant response rating, Horseweed [4, 7]: 50; Plant response rating, Horseweed [4, 8]: 75; Plant response rating, Horseweed [4, 9]: 80; Plant response rating, Horseweed [4, 10]: 70; Plant response rating, Horseweed [4, 11]: 90; Plant response rating, Horseweed [4, 12]: 100; Plant response rating, Horseweed [4, 13]: 100; Plant response rating, Horseweed [4, 14]: 100; Plant response rating, Russian Thistle [1, 10]: 85; Plant response rating, Russian Thistle [1, 14]: 100; Plant response rating, Nutsedge, Purple [2, 5]: 40; Plant response rating, Nutsedge, Purple [2, 9]: 0; Plant response rating, Nutsedge, Purple [2, 13]: 100; Plant response rating, Nutsedge, Purple [2, 14]: 100
